Patent US9522935B2, “Commands and method of treating cancer via RHO pathway” (priority 2013, dated 2016)

Key:
HepG2 cells = assay: MTT assay, compounds related to LD030 on HepG2 cells; assay type: cell-based, human; details: Homo sapiens, HepG2, 48 hours, read-out: Effects on HepG2 Cells (inhibitory percentage)
Protocol: (§1) MTT assay was used to detect cell viability after being treated with different compounds of the present invention related to LD030. The cell lines treated were on non-small lung cancer cell line A549, HepG2 cells and Panc1 cells.
(§2) MTT preservation solution preparation: 0.5 g MTT was dissolved in 100 ml of phosphate buffer solution (PBS), and bacteria contaminates were removed with a 0.22 μm membrane filter to obtain 0.5% MTT solution, which was stored in the dark at −20° C.
(§3) MTT working solution preparation: MTT preservation solution was diluted 10 times with sterile PBS to obtain MTT working solution.
(§4) 1640 complete medium preparation: 1640 base medium was added with an amount of fetal bovine serum (FBS) so that the medium contains 10% FBS by volume. Then an amount of double-antibody (i.e., penicillin and streptomycin) was added to make final concentration of penicillin at 100 units/ml and streptomycin at 100 ug/ml.
(§5) The experimental procedure is as follows:
(§6) (1) Take trypsin digested logarithmic phase cells and adjust the concentration of the cell suspension to 6×10^4 cell/ml, and then add 100 ul suspension of the cells under the test to each well on a 96-well plate and adjusted to a density of 6000 cells/well. The edge orifice is filled with sterile PBS.
(§7) (2) Placed the 96-well plate into a 37° C. incubator with 5% CO2 and incubate it overnight.
(§8) (3) Dissolve the test compounds in 200 ul DMSO to get a 5 mg/ml solution and dilute it to get 100 uM, 10 uM, 1 uM and 0.1 uM solutions. Add 100 ul of a solution to each of three repeat wells. Set a control well which has cells but without the compound of the present invention and a blank cell which contains no cells.
(§9) (4) Put the 96-well plate into a 37° C. incubator with 5% CO2 and incubate it for 48 hours. Examine the cells daily under a microscope.
(§10) (5) After being cultured for 48 hours, centrifuge and discard the culture liquid. Add 100 ul MTT working solution to each well, and continue incubating for 4 h.
(§11) (6) Terminate the culture, and carefully remove the culture medium. Then add 100 ul DMSO to each well and shake it at a low speed in a shaker for 10 min to make all crystals fully dissolved. The absorbance value of each well was measured by an enzyme-linked immunosorbent detector at the OD570 nm, and the inhibition rate of the different compounds with different concentration on cell growth can be obtained.

Panc1 cells = assay: MTT assay, compounds related to LD030 on Panc1 cells; assay type: cell-based, human; details: Homo sapiens, PANC-1, 48 hours, read-out: Effects on Panc1 Cells (inhibitory percentage)
Protocol: as §1, §2, §3, §4, §5, §6, §7, §8, §9, §10, §11

[1] = test system: non-small lung cancer cell line A549; assay: MTT assay, compounds related to LD030 on A549 cells; assay type: cell-based; details: Homo sapiens, A549, 48 hours, read-out: Effects on A549 Cells (inhibitory percentage)
Protocol: as §1, §2, §3, §4, §5, §6, §7, §8, §9, §10, §11

[2] = test system: pancreatic cancer cell lines; assay: Nude mouse model of pancreatic cancer (xenograft), tumor size; assay type: in vivo, NOD/SCID mice; details: 43 days
Protocol: Two strains of pancreatic cancer cell lines were selected to be grafted to nonobese diabetic/severe combined immunodeficient (NOD/SCID) mice, and the tumor was inoculated in mouse ventral sides. About two weeks, they were used as a nude mouse model of pancreatic cancer. […] Each of the above groups. The treatment continued for 43 days (gemcitabine alone group 2 times a week; other groups 3 times a week), and then tumor size was recorded as shown in FIG. 16. […] Further experiments were conducted to study the effects of the combinational use of LD030 with gemcitabine as compared being used alone on tumor inhibition. Four treatment groups were set up: (a) blank control, (2) gemcitabine (25 mg/kg/time, 2 times a week), (3) LD030 (0.5 mg/kg/time, 3 times a week), (4) LD030 (0.5 mg/kg/time, 3 times a week) together with gemcitabine (25 mg/kg/time, 2 times a week).

Compound | inhibition at 0.1 µM (HepG2 cells) | inhibition at 1 µM (HepG2 cells) | inhibition at 10 µM (HepG2 cells) | inhibition at 100 µM (HepG2 cells) | inhibition at 0.1 µM (Panc1 cells) | inhibition at 1 µM (Panc1 cells) | inhibition at 10 µM (Panc1 cells) | inhibition at 100 µM (Panc1 cells) | inhibition at 0.1 µM [1] | inhibition at 1 µM [1] | inhibition at 10 µM [1] | inhibition at 100 µM [1] | tumor volume reduced ([2]; 25 mg/kg/time gemcitabine, FIG. 15) | tumor size reduced ([2]; gemcitabine 25 mg/kg/time, 2 times a week, FIG. 17)
CC(CCC(O)C(C)(C)O)C1CC[C@@]2(C)C34CC[C@H]5C(C)(C)[C@@H](O)CC[C@]5(C)C3(CC[C@]12C)O4 (some centres unmarked) [LD 024] | 22% | 14.3% | 5.86% | 2.1% | -7.19% | -8.39% | -13% | 6.95% | 1.38% | 6.04% | -0.22% | 34.6% | – | –
CC(CCC(=O)C(C)(C)O)C1CC[C@@]2(C)C34CC[C@H]5C(C)(C)C(=O)CC[C@]5(C)C3(CC[C@]12C)O4 (some centres unmarked) [LD 025] | -1.15% | -19.1% | -1.79% | 20.5% | -16.5% | -12.8% | -9.57% | -16% | 25.2% | 1.71% | 0.51% | 16.9% | – | –
CC(=O)O[C@H]1CC[C@]2(C)C3=C(CC[C@H]2C1(C)C)[C@]1(C)CCC(C(C)CCC2OC2(C)C)[C@@]1(C)CC3 (some centres unmarked) [LD 026-1] | -3.32% | -0.13% | 12.7% | 58.1% | -2.84% | 9.46% | 8.83% | 34.4% | 21.8% | 6.66% | 8.3% | 39.8% | – | –
CC(=O)O[C@H]1CC[C@@]2(C)[C@@H](CCC34OC32CC[C@]2(C)C(C(C)CCC3OC3(C)C)CC[C@@]42C)C1(C)C (some centres unmarked) [LD 026-2] | 20.3% | 32.8% | 20.8% | 33.9% | 8.79% | 7.59% | 14.6% | 21.5% | 2.51% | 6.88% | -2.33% | 33% | – | –
CC(=O)O[C@H]1CC[C@]2(C)C3CC[C@]4(C)C(C(C)CCC(O)C(C)(C)O)CC[C@@]4(C)C3CC[C@H]2C1(C)C (some centres unmarked) [LD 028] | 29.4% | 37.4% | 67.8% | 45.8% | -9.19% | -0.48% | -0.4% | 0.16% | 3.24% | 10% | -1.75% | 29.2% | – | –
Nc1ccn([C@@H]2O[C@H](CO)[C@@H](O)C2(F)F)c(=O)n1 [gemcitabine, reference compound] | – | – | – | – | – | – | – | – | – | – | – | – | 37% | 37%
